From patent US20260250277A1, “HYDRAZINO GROUP-CONTAINING COMPOUND” (CHIA TAI TIANQING PHARMACEUTICAL GROUP CO., LTD., priority 2022, published 2026) come the findings set out here.

For one data set, the target named is ATM kinase (Homo sapiens, UniProt Q13315). As to the kind of experiment: Inhibitory activity against ATM kinase (p53 substrate, HTRF). The data set is classed as biochemical. Here is the method: (§1) ATM kinase solution (concentration: 25 ng/μL) was added to assay wells at 6 μL/well, and different compounds dissolved in DMSO were added to the assay wells separately using a nanoliter pipettor, such that the final concentrations of the compounds were 10000 nM to 2.44 nM. In this experiment, the wells were set in duplicate, and a control well was set. After incubation of the above system for 30 min at room temperature, ATP (100 μM) was mixed with p53 substrate (50 nM) at a ratio of 1:1, and the mixture was added at 4 μL/well. The resulting mixture was left to react at room temperature for 2 h, and then 5 μL of EDTA was added to terminate the reaction, followed by addition of 5 μL of detection antibodies, Mab Anti-phospho p53 and Mab Anti GST-d2 (manufacturer: perkinelmer). The mixture was incubated at room temperature for 1 h. The plate was read using a PerkinElmer Envision multifunctional microplate reader (excitation: 320 nm, emission: 620 nm/665 nm), and IC50 was calculated by four-parameter fitting.
Chain of ATM kinase (Q13315 whole entry): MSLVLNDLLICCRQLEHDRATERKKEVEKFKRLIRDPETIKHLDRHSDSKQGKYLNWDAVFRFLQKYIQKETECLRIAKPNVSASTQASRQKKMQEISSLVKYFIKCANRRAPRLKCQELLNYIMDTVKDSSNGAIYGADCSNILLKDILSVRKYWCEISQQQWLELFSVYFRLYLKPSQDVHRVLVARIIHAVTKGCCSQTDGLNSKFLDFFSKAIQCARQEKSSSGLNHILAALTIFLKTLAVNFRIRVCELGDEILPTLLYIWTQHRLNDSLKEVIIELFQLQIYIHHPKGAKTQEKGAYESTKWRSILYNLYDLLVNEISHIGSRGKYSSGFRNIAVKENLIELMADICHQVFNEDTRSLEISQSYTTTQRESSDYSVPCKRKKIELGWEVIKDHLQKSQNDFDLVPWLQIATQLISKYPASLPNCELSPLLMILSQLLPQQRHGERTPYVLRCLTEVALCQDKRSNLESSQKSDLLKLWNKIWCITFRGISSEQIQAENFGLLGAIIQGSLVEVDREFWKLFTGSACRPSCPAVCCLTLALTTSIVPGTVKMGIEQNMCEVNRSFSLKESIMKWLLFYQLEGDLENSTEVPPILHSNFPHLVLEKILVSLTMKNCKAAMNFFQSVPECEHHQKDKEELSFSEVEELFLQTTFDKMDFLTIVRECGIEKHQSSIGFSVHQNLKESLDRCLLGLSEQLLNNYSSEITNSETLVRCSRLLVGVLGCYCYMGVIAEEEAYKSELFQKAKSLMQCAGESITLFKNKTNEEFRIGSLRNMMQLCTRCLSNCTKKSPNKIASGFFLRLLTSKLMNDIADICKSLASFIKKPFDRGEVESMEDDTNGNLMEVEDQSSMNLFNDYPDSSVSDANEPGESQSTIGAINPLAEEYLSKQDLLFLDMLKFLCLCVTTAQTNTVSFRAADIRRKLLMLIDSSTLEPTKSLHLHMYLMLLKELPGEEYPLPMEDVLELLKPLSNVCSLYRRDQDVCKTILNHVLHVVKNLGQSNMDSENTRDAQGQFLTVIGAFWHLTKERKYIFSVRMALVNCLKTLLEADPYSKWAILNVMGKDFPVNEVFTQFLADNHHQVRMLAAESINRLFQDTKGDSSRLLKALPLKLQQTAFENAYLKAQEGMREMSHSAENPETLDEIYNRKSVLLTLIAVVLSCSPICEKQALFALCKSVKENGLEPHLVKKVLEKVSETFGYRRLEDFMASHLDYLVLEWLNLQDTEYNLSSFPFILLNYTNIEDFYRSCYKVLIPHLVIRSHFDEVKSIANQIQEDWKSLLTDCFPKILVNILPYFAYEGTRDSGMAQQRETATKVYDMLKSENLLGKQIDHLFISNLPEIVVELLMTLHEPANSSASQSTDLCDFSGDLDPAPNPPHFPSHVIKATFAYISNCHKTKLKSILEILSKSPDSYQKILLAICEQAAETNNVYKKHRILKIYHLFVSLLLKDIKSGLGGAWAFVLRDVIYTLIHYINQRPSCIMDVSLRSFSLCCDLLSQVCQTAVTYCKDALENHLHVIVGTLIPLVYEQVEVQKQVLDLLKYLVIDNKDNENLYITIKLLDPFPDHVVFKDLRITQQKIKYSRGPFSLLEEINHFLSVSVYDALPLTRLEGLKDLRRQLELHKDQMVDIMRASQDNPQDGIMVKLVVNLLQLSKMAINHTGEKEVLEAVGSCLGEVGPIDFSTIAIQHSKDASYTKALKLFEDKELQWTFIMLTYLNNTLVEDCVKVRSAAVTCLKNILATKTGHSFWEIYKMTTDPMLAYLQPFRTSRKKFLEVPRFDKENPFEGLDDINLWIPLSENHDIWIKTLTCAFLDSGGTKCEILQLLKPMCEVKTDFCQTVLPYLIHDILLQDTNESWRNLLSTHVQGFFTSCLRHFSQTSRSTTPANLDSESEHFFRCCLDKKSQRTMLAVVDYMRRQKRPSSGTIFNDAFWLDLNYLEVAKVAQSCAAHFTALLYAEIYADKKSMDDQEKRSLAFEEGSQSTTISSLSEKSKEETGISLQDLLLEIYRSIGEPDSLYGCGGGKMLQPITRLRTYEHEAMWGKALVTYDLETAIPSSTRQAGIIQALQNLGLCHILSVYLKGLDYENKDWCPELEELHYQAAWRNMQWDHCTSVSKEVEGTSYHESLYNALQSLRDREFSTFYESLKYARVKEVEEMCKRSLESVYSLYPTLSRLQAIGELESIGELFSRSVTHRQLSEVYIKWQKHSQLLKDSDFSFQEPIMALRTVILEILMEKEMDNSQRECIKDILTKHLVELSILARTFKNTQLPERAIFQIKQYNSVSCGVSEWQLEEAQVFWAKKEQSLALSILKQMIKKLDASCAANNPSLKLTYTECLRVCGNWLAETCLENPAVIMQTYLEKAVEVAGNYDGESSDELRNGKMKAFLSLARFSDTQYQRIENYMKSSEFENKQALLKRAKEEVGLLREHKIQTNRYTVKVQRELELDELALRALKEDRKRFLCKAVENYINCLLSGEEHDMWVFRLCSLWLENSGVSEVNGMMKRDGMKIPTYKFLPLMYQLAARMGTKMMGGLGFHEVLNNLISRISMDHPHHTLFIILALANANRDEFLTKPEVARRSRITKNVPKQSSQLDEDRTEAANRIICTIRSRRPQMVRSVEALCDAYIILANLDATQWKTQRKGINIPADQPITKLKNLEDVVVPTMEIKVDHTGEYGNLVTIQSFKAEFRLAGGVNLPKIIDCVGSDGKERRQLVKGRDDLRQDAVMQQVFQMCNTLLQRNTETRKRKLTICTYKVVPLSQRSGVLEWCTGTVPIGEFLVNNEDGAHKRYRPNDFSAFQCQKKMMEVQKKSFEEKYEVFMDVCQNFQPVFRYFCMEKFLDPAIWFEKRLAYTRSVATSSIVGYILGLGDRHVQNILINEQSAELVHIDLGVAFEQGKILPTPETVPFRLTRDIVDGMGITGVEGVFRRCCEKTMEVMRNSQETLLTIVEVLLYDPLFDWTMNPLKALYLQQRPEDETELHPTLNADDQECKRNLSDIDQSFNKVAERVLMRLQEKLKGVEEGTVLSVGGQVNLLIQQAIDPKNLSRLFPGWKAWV

Data set [1] has as its target ATR/ATPIP (ATR-interacting protein) kinase (Homo sapiens, UniProt Q13535). Put plainly: Inhibitory activity against ATR kinase (p53 substrate, HTRF). The class given is biochemical. Here is the method: as §1, with “ATR/ATPIP (ATR-interacting protein)” for “ATM”, “50” for “25”, “(5” for “(100”
Data set [2] has as its target DNA-PK (DNA-dependent protein kinase) (Homo sapiens, UniProt P78527). Put plainly: Inhibitory activity against DNA-PK (p53 substrate, HTRF). The class given is biochemical. The method, then:
as §1, with “DNA-PK” for “ATM”, “0.15” for “25”

The subject of data set [3] is CHK2 phosphorylation of NCI-H2228 cells. Put plainly: Inhibitory activity against CHK2 phosphorylation of NCI-H2228 cells (p-CHK2 Thr68 AlphaLISA). The class given is cell-based. To be noted: Homo sapiens. Here is the method: NCI-H2228 cells in a good growth state were collected, added to a centrifuge tube, adjusted to a cell density of 1.25×10^6 cells/mL, and seeded in a 384-well plate (8 μL/well). The cells were equilibrated in a cell incubator for 1.5 h, and then compounds were added using a nanoliter pipettor, such that the final concentrations of the compounds were 200 nM to 0.049 nM. In this experiment, the wells were set in duplicate, and a control well was set. After the mixture was further cultured for 1 h in the cell incubator, an assay was performed using a p-CHK2 (Thr68) assay kit (manufacturer: perkinelmer) and the Envision microplate reader AlphaLISA program. A four-parameter analysis was performed, a dose-response curve was fit, and IC50 was calculated.

Data set [4] in a line: In vivo pharmacokinetics (Table 4). To be noted: plasma; for MRT last: read-out: MRT(0-t); for Vd: read-out: Vz.

Like-named read-outs stand apart in the source and are kept apart here. A value given as a limit tells only on which side of the number the result lay.

With `CC(C)n1c(=O)n(N)c2cnc3cc(F)c(-c4ccc(OCCCN5CCCC5)nc4)cc3c21` [Example 3], the IC50 on ATM kinase was less than 50 nM. The same compound gave an IC50 in data set [1] of more than 1000 nM. The same compound had an IC50 in data set [2] of more than 1000 nM. Further, in data set [3], the IC50 was less than 50 nM. Also, in data set [4] (iv, 1 mg/kg), the total exposure AUC(0-inf) came to 460 ng·h/mL, the AUC(0-t) stood at 445 ng·h/mL, the half-life is 104 min and the MRT last came out at 2.1 h. Besides, the Vd in data set [4] (iv, 1 mg/kg) amounted to 5.45 L/kg. Moreover, in data set [4] (po, IG, 10 mg/kg), the AUC(0-inf) is 4330 ng·h/mL, the AUC(0-t) is 4250 ng·h/mL, the highest level (Cmax) was 495 ng/mL and the Tmax was found to be 1 h. In addition, in data set [4] (po, IG, 10 mg/kg), the half-life is 241 min and the MRT last is 6.05 h.
For `Nn1c(=O)n(C2CC2)c2c3cc(-c4ccc(OCCCN5CCCCC5)nc4)c(F)cc3ncc21` [Example 18], the IC50 at ATM kinase was less than 50 nM. The compound further yielded an IC50 in data set [1] of more than 1000 nM. For the same compound, in data set [2], the IC50 was more than 1000 nM. In data set [3], this compound displayed an IC50 of less than 50 nM. In addition, in data set [4] (iv, 1 mg/kg), the AUC(0-inf) came to 624 ng·h/mL, the AUC(0-t) was 587 ng·h/mL, the half-life is 130 min and the MRT last was 1.89 h. Moreover, in data set [4] (iv, 1 mg/kg), the Vd was 3.9 L/kg. Moreover, in data set [4] (po, IG, 10 mg/kg), the AUC(0-inf) was 4500 ng·h/mL, the AUC(0-t) stood at 4460 ng·h/mL, the highest level (Cmax) was 506 ng/mL and the time to peak (Tmax) came out at 4 h. In data set [4] (po, IG, 10 mg/kg), the half-life was 211 min and the MRT last was 4.99 h.
On to `COc1cc2ncc3c(c2cc1-c1ccc(OCCCN2CCCC2)nc1)n(-c1c(F)cncc1OC)c(=O)n3N` [Example 31], for which the IC50 on ATM kinase was less than 50 nM; in data set [1] it was 8720 nM; in data set [2], more than 10000 nM; in data set [3], less than 50 nM.
As for `CNn1c(=O)n(C(C)C)c2c3cc(-c4ccc(OCCCN5CCCCC5)nc4)c(F)cc3ncc21` [Example 7], the IC50 at ATM kinase was less than 50 nM; in data set [1], more than 1000 nM; in data set [2], more than 1000 nM; in data set [3] it was less than 50 nM.
`COC1CCC(n2c(=O)n(N)c3cnc4cc(F)c(-c5ccc(OCCCN(C)C)nc5)cc4c32)C1` (stereo not shown) [Example 14]: the IC50 is less than 50 nM against ATM kinase, more than 1000 nM in data set [1], more than 1000 nM in data set [2] and less than 50 nM in data set [3].
For the compound `COC1CC(n2c(=O)n(N)c3cnc4cc(F)c(-c5ccc(OCCCN6CCCCC6)nc5)cc4c32)C1` (stereo not shown) [Example 20], the IC50 at ATM kinase was less than 50 nM; in data set [1], more than 1000 nM; in data set [2], more than 1000 nM; in data set [3] it was less than 50 nM.
Take `Nn1c(=O)n(C2CCOCC2)c2c3cc(-c4ccc(OCCCN5CCCC5)nc4)c(F)cc3ncc21` [Example 5]: the IC50 at ATM kinase was less than 50 nM; in data set [1] it was more than 1000 nM; in data set [2], more than 1000 nM; in data set [3], less than 50 nM.
In turn, `CC(C)n1c(=O)n(N)c2cnc3cc(F)c(-c4ccc(OCCCN5CCCCC5)nc4)cc3c21` [Example 2] returned an IC50 at ATM kinase of less than 50 nM. This compound returned a half-maximal inhibitory concentration (IC50) in data set [1] of 821 nM. In data set [2], this compound registered an IC50 of more than 1000 nM. The compound further gave an IC50 in data set [3] of less than 50 nM. In data set [4] (iv, 1 mg/kg), the total exposure AUC(0-inf) was 539 ng·h/mL, the AUC(0-t) came out at 521 ng·h/mL, the half-life was 102 min and the MRT last was 2.11 h. In data set [4] (iv, 1 mg/kg), the Vd was 4.55 L/kg. In data set [4] (po, IG, 10 mg/kg), the AUC(0-inf) came to 4270 ng·h/mL, the AUC(0-t) was determined as 4150 ng·h/mL, the Cmax stood at 521 ng/mL and the Tmax turned out to be 0.5 h. For the same compound, in data set [4] (po, IG, 10 mg/kg), the half-life was 275 min and the MRT last came out at 6.1 h.
Regarding `COC1CC(n2c(=O)n(N)c3cnc4cc(F)c(-c5ccc(OCCCN(C)C)nc5)cc4c32)C1` (stereo not shown) [Example 21], the IC50 against ATM kinase was less than 50 nM; in data set [1], more than 1000 nM; in data set [2], more than 1000 nM; in data set [3], less than 50 nM.
As for `Nn1c(=O)n(C2CC2)c2c3cc(-c4ccc(OCCCN5CCCC5)nc4)c(F)cc3ncc21` [Example 19], the IC50 on ATM kinase was less than 50 nM. This compound registered an IC50 in data set [1] of more than 1000 nM. In data set [2], this compound yielded an IC50 of more than 1000 nM. The same compound returned an IC50 in data set [3] of less than 50 nM. In addition, in data set [4] (iv, 1 mg/kg), the AUC(0-inf) turned out to be 474 ng·h/mL, the AUC(0-t) was 451 ng·h/mL, the half-life is 123 min and the MRT last amounted to 1.84 h. Besides, the Vd in data set [4] (iv, 1 mg/kg) turned out to be 4.82 L/kg. Besides, in data set [4] (po, IG, 10 mg/kg), the AUC(0-inf) was determined as 4000 ng·h/mL, the AUC(0-t) is 3980 ng·h/mL, the highest level (Cmax) was 485 ng/mL and the Tmax amounted to 4 h. Also, in data set [4] (po, IG, 10 mg/kg), the half-life was 184 min and the MRT last amounted to 4.72 h.
For the compound `COc1cc2ncc3c(c2cc1-c1ccc(OCCCN2CCCC2)nc1)n(C(C)C)c(=O)n3N` [Example 17], the IC50 against ATM kinase is less than 50 nM; in data set [1] it was more than 1000 nM; in data set [2], more than 1000 nM; in data set [3], less than 50 nM.
